In one test the test system is HuapoAI transgenic mice. The test can be described thus: Evaluation of triglyceride and cholesterol level in HuapoAI transgenic mice. Particulars: human apoAI transgenic mice; for change in vivo at 30 mg/kg / inhibition in vivo at 30 mg/kg: Mus musculus, 168 h, 30 mg/kg oral gavage daily for 7 days; for change in vivo at 30 mg/kg: FPLC area under the curve, over mice receiving vehicle, read-out: % HDLc Increase; for inhibition in vivo at 30 mg/kg: serum 3 h after dosing, read-out: Reduction in Triglyceride Serum Level. It counts as in vivo. As for the experimental part: After an acclimation period of 2 weeks, animals were individually identified by ear notches, weighed, and assigned to groups based on body weight. Beginning the following morning, mice were dosed daily by oral gavage for 7 days using a 20 gauge, 1½″ curved disposable feeding needle (Popper & Sons). […] Prior to termination on day 7, mice were weighed and dosed. Three hours after dosing, animals were anesthetized by inhalation of isoflurane (2-4%; Abbott Laboratories, Chicago, Ill.) and blood obtained via cardiac puncture (0.7-1.0 ml). Whole blood was transferred to serum separator tubes (Vacutainer SST), chilled on ice, and permitted to clot. Serum was obtained after centrifugation at 4° C. and frozen until analysis for triglycerides, total cholesterol, compound levels, and serum lipoprotein profile by fast protein liquid chromatography (FPLC) coupled to an inline detection system. After sacrifice by cervical dislocation, the liver, heart and epididymal fat pads were excised and weighed.
The absorbance of the dye produced is linearly related to the analyte in the sample. The assays were further modified in our laboratory for use in a 96 well format. […] An additional aliquot of sample, pipetted to a third well and diluted in 200 μl water, provided a blank for each specimen. […] Sample absorbances were compared to a standard curve (100-800, 10-500, and 100-400 mg/dl for glucose, triglycerides and total cholesterol, respectively). […] All samples from an experiment were assayed at the same time to minimize inter-assay variability.
Serum lipoproteins were separated and cholesterol quantitated with an in-line detection system. Sample was applied to a Superose® 6 HR 10/30 size exclusion column (Amersham Pharmacia Biotech) and eluted with phosphate buffered saline-EDTA at 0.5 ml/min. […] The change in voltage corresponding to change in cholesterol concentration was plotted vs time and the area under the curve corresponding to the elution of VLDL, LDL and HDL was calculated using Perkin Elmer Turbochrome software.

In the next test the test system is db/db mice. The test is described as follows: Evaluation of glucose levels in db/db mice. It counts as in vivo. Particulars: Mus musculus, 168 h, 30 mg/kg oral gavage daily for 7 days, 100% = glucose not different from lean values, read-out: Glucose Normalisation. As to the method: Five week old male diabetic (db/db) mice [C57BlKs/j-m+/+ Lepr(db), Jackson Laboratory, Bar Harbor, Me.] or lean littermates (db+) were housed 6 per cage (10″×20″×8″ with aspen chip bedding) with food (Purina 5015) and water available at all times. After an acclimation period of 2 weeks, animals were individually identified by ear notches, weighed, and bled via the tail vein for determination of initial glucose levels. Blood was collected (100 μl) from unfasted animals by wrapping each mouse in a towel, cutting the tip of the tail with a scalpel, and milking blood from the tail into a heparinized capillary tube (Fisher) balanced on the edge of the bench. Sample was discharged into a heparinized microtainer with gel separator (VWR) and retained on ice. Plasma was obtained after centrifugation at 4° C. and glucose measured immediately. Remaining plasma was frozen until the completion of the experiment, when glucose and triglycerides were assayed in all samples. Animals were grouped based on initial glucose levels and body weights. Beginning the following morning, mice were dosed daily by oral gavage for 7 days using a 20 gauge, 1½″ curved disposable feeding needle. Treatments were test compounds (30 mg/kg), a positive control agent (30 mg/kg) or vehicle [1% carboxymethylcellulose (w/v)/0.25% Tween80 (w/v); 0.3 ml/mouse]. On day 7, mice were weighed and bled (tail vein) 3 hours after dosing. Twenty-four hours after the 7th dose (i.e., day 8), animals were bled again (tail vein). Samples obtained from conscious animals on days 0, 7 and 8 were assayed for glucose. After the 24 hour bleed, animals were weighed and dosed for the final time. Three hours after dosing on day 8, animals were anesthetized by inhalation of isoflurane and blood obtained via cardiac puncture (0.5-0.7 ml). Whole blood was transferred to serum separator tubes, chilled on ice and permitted to clot. Serum was obtained after centrifugation at 4° C. and frozen until analysis for compound levels. After sacrifice by cervical dislocation, the liver, heart and epididymal fat pads were excised and weighed.
The animals dosed with vehicle had average triglycerides values of 170-230 mg/dl, which were reduced by the positive PPARγ control (70-120 mg/dl with a mean reduction of 50%). Male db/db mice were hyperglycemic (average glucose of 680-730 mg/dl on the 7th day of treatment), while lean animals had average glucose levels between 190-230 mg/dl.
Glucose was measured […] using commercially purchased reagents (Sigma #315-500). According to the manufacturers, the procedures were modified from published work (McGowan, M. W., Artiss, J. D., Strandbergh, D. R. & Zak, B. Clin Chem, 20:470-5 (1974) and Keston, A. Specific colorimetric enzymatic analytical reagents for glucose. Abstract of papers 129th Meeting ACS, 31C (1956).); and depend on the release of a mole of hydrogen peroxide for each mole of analyte, coupled with a color reaction first described by Trinder (Trinder, P. Determination of glucose in blood using glucose oxidase with an alternative oxygen acceptor. Ann Clin Biochem, 6:24 (1969)). The absorbance of the dye produced is linearly related to the analyte in the sample. The assays were further modified in our laboratory for use in a 96 well format. Standards (Sigma #339-11, Sigma #16-11, and Sigma #CC0534 for glucose, triglycerides and total cholesterol, respectively), quality control plasma (Sigma # A2034), and samples (2 or 5 μl/well) were measured in duplicate using 200 μl of reagent. An additional aliquot of sample, pipetted to a third well and diluted in 200 μl water, provided a blank for each specimen. Plates were incubated at room temperature (18, 15, and 10 minutes for glucose, triglycerides and total cholesterol, respectively) on a plate shaker (DPC Micormix 5) and absorbance read at 500 nm (glucose and total cholesterol) or 540 nm (triglycerides) on a plate reader (Wallac Victor 1420). […]

The mark [1] stands for this setting: 100 mg/kg oral daily 7 days, vs vehicle.

As to `Cc1oc(-c2ccccc2)nc1CCOc1ccc(CC(C)(Oc2ccccc2)C(=O)O)cc1` (racemic) [Example 1, rac-3-{4-[2-(2-Phenyl-5-methyl-oxazol-4-yl)-ethoxy]-phenyl}-2-methyl-2-phenoxy-propionic acid], in the test with HuapoAI transgenic mice, the change in vivo at 30 mg/kg is 83%. For the same molecule, the figures for the inhibition in vivo at 30 mg/kg in the test on HuapoAI transgenic mice and in the test with db/db mice were 41.3% and 95%, respectively.
In the case of `Cc1oc(-c2cccs2)nc1CCOc1ccc(CC(C)(Oc2ccccc2)C(=O)O)cc1` (racemic) [Example 4, rac-2-Methyl-3-{4-[2-(5-methyl-2-thiophen-2-yl-oxazol-4-yl)-ethoxy]-phenyl}-2-phenoxypropionic acid], in the test with HuapoAI transgenic mice, the change in vivo at 30 mg/kg stood at 24% and the inhibition in vivo at 30 mg/kg was found to be 58.3%. For the same molecule, in the test with db/db mice, the inhibition in vivo at 30 mg/kg was determined as 74%.
On to `Cc1oc(-c2ccccc2)nc1CCOc1ccc(C[C@@](C)(Oc2ccccc2)C(=O)O)cc1` [Example 2, (R)-3-{4-[2-(2-Phenyl-5-methyl-oxazol-4-yl)-ethoxy]-phenyl}-2-methyl-2-phenoxy-propionic acid], for which, in the test on HuapoAI transgenic mice, the change in vivo at 30 mg/kg turned out to be 25% and the inhibition in vivo at 30 mg/kg is -12.9%. The inhibition in vivo at 30 mg/kg in the test on db/db mice was determined as 9%.
With `Cc1oc(-c2ccccc2)nc1CCOc1ccc(C[C@](C)(Oc2ccccc2)C(=O)O)cc1` [Example 3, (S)-3-{4-[2-(2-Phenyl-5-methyl-oxazol-4-yl)-ethoxy]-phenyl}-2-methyl-2-phenoxy-propionic acid], the change in vivo at 30 mg/kg in the test with HuapoAI transgenic mice is 67%. In addition, the inhibition in vivo at 30 mg/kg with db/db mice was determined as 85%.
For `Cc1oc(-c2cccs2)nc1CCOc1ccc(C[C@@](C)(Oc2ccccc2)C(=O)O)cc1` [Example 5, (R)-2-Methyl-3-{4-[2-(5-methyl-2-thiophen-2-yl-oxazol-4-yl)-ethoxy]-phenyl}-2-phenoxypropionic acid], in the test with HuapoAI transgenic mice, the change in vivo at 30 mg/kg was found to be 30% and the inhibition in vivo at 30 mg/kg was determined as 19.7%. In the test with db/db mice, the inhibition in vivo at 30 mg/kg is 80%.
On to `Cc1oc(-c2cccs2)nc1CCOc1ccc(C[C@](C)(Oc2ccccc2)C(=O)O)cc1` [Example 6, (S)-2-Methyl-3-{4-[2-(5-methyl-2-thiophen-2-yl-oxazol-4-yl)-ethoxy]-phenyl}-2-phenoxypropionic acid], for which, in the test with HuapoAI transgenic mice, the change in vivo at 30 mg/kg came to 85% and the inhibition in vivo at 30 mg/kg stood at 38.5%. In addition, in the test with db/db mice, the inhibition in vivo at 30 mg/kg was 86%.
For the molecule `Cc1oc(C2CCCCC2)nc1CCOc1ccc(CC(C)(Oc2ccccc2)C(=O)O)cc1` (centres unmarked) [Example 7, 2-Methyl-3-(4-{2-[5-methyl-2-cyclohexyl-oxazol-4-yl]-ethoxy}-phenyl)-2-phenoxypropionic acid], in the test with HuapoAI transgenic mice, the change in vivo at 30 mg/kg turned out to be 39% and the inhibition in vivo at 30 mg/kg is 42.1%. The inhibition in vivo at 30 mg/kg in the test on db/db mice came out at 86%.
For `CC(C)OC(=O)C(C)(C)Oc1ccc(C(=O)c2ccc(Cl)cc2)cc1` [fenofibrate, reference compound], the HDLc peak area in the test on HuapoAI transgenic mice (100 mg/kg oral daily 7 days, FPLC of pooled sera, vehicle 47-62 v-sec) is recorded as 68-96 v-sec. Besides, the “mean percent increase of HDLc” value in the test with HuapoAI transgenic mice (100 mg/kg oral daily 7 days, FPLC, vs vehicle) is reported as 48%. For the same molecule, in the test on HuapoAI transgenic mice (setting [1]), the “mean elevation of total serum cholesterol” value was found to be 41% and the “mean reduction of triglycerides” value is 37%. This molecule returned an average triglycerides values in the test with HuapoAI transgenic mice (100 mg/kg oral daily 7 days, vehicle 60-80 mg/dl) of 33 to 58 mg/dL. Moreover, the “average total serum cholesterol values” in the test on HuapoAI transgenic mice (100 mg/kg oral daily 7 days, vehicle 140-180 mg/dl) was in the range of 190 to 280 mg/dL.

These data come from US7345070B2, “Peroxisome proliferator activated receptor agonists” (Eli Lilly and Company, priority 2000, dated 2008).
